# Laboratory results as given in patent publication US8637677B2, “Organic dicarboxylic acids, salts and preparation method thereof” (Southeast University, priority 2009, dated 2014).
# Experiments:
# [1] = tested on: in vitro eye lens of rabbits; experiment: resisting oxidative damage to in vitro eye lens of rabbits induced by H2O2 (lens opacification grading); format: cell-based; conditions: rabbit lens; for Comments (improvement versus model group) / Observation Results + (number of lenses with mild opacity, degree I) / Observation Results ++ (number of lenses with moderate opacity, degree II) / Percentages for different degrees % + Degree (I) / Percentages for different degrees % >++ Degrees(I, II) / Observation Results +++ (number of lenses totally opacified, degree III): 2% H2O2 + 0.02% FeCl3, 24 h culture, sample and BDL 0.5 mmol/L; for Observation Results + (number of lenses with mild opacity, degree I) / Observation Results ++ (number of lenses with moderate opacity, degree II) / Percentages for different degrees % + Degree (I) / Percentages for different degrees % >++ Degrees(I, II) / Observation Results +++ (number of lenses totally opacified, degree III): vitamin C 1 mmol/L; for inhibitory effects on oxidative damage to in vitro eye lens of rabbits induced by H2O2: sample 0.5 mmol/L, table 1
# Source text: (§1) Some typical compounds are selected for the research on the capability of in vitro resisting oxidative damage to crystalline lens induced by H2O2. The experiments are illustrated as follows:
# (§2) Kill rats and rabbits, take out their eyeballs and rinse with saline containing 500 u/mL penicillin, split the eyeball from the posterior to remove eyeball wall and vitreous body, strip off the suspensory ligament, take out the crystalline lens and wash with PBS solution containing 500 u/mL penicillin and 0.5 mg/mL streptomycin for 5 min Before experiment, check with anatomical lens to confirm that there is no opacification or other abnormal condition in the crystalline lens, then place the crystalline lens in the sterilized 12-well plate containing 2 mL DMEM/high glucose (a product from Beijing Thermo Fisher Scientific Biochemical Product Co., Ltd.) sterile culture solution (which contains 100 u/mL penicillin and 0.1 mg/mL streptomycin), add different compounds for screening and pre-culture in a incubator with temperature of 37° C., humidity of 95% and 5% CO2 for 1 h, subsequently add 2 mL DEME culture solution containing H2O2 and FeCl3 (namely, total 4 mL culture solution in each well) (the total concentration of H2O2 in each well is 2% for rabbits, and 5% for rats, and the concentrations of FeCl3 are all 0.02%), culture under the same conditions for 24 hours. The experiments are divided into several groups as below and carried out in batches, with each batch provided with negative control group and model group.
# (§3) A. Negative control group: DMEM culture solution without H2O2.
# (§4) B. Model group (oxidative damage group): DMEM culture solution containing H2O2 and FeCl3.
# (§5) C. Vitamin C group: besides the ingredients of the model group, further containing vitamin C (the final concentration is 1 mmol/L).
# (§6) D. Bendazac lysine (BDL) group (BDL is provided by Zhejiang Shapuaisi Pharmaceutical Co. Ltd., and its purity is more than 98.5%): besides the ingredients of model group, further containing BDL (the final concentration is 0.5 mmol/L).
# (§7) E. Sample group: besides the ingredients of model group, further containing sample (the final concentration is 0.5 mmol/L).
# (§8) Evaluation criteria: according to large amount of experiments on the model group, the ratio between the percentage of different degrees of lens opacification in the groups and the percentage of different degrees of lens opacification in the model group is utilized as the definition, wherein, for slight improvement (√), the percentage of ++ (degrees II, III) should be lower than 67%, and the percentage of + (degree I) should be higher than 33%; for moderate improvement (√√), the percentage of ++(degrees II, III) further decreases; and the percentage of 0 (−) appears; for significant improvement (√√√), the percentage of ++ (degrees II, III) and + (degree I) disappears, and the lens are almost transparent.
# [2] = tested on: in vitro eye lens of rats; experiment: resisting oxidative damage to in vitro eye lens of rats induced by H2O2 (lens opacification grading); format: cell-based; conditions: rat lens; for Comments (improvement versus model group) / Observation Results + (number of lenses with mild opacity, degree I) / Observation Results ++ (number of lenses with moderate opacity, degree II) / Observation Results +++ (number of lenses totally opacified, degree III) / Percentages % + Degree (I) / Percentages % >++ Degrees (II, III): 5% H2O2 + 0.02% FeCl3, 24 h culture, sample and BDL 0.5 mmol/L; for Observation Results + (number of lenses with mild opacity, degree I) / Observation Results ++ (number of lenses with moderate opacity, degree II) / Observation Results +++ (number of lenses totally opacified, degree III) / Percentages % + Degree (I) / Percentages % >++ Degrees (II, III): vitamin C 1 mmol/L; for inhibitory effects on oxidative damage to in vitro eye lens of rats induced by H2O2: sample 0.5 mmol/L, summary of table 2
# Source text: as §1, §2, §3, §4, §5, §6, §7
# as §8, with “lens turbidity” for “lens opacification”, “than 72%,” for “than 67%,”, “than 20%;” for “than 33%;”, “improvement (√√)” for “improvement (√√),”, “and +(degree” for “and + (degree”
Compound,Comments (improvement versus model group) [1],"Observation Results + (number of lenses with mild opacity, degree I) [1]","Observation Results ++ (number of lenses with moderate opacity, degree II) [1]",Percentages for different degrees % + Degree (I) [1] [%],"Percentages for different degrees % >++ Degrees(I, II) [1] [%]",Comments (improvement versus model group) [2],"Observation Results + (number of lenses with mild opacity, degree I) [2]","Observation Results ++ (number of lenses with moderate opacity, degree II) [2]","Observation Results +++ (number of lenses totally opacified, degree III) [2]",Percentages % + Degree (I) [2] [%],"Percentages % >++ Degrees (II, III) [2] [%]","Observation Results +++ (number of lenses totally opacified, degree III) [1]",inhibitory effects on oxidative damage to in vitro eye lens of rabbits induced by H2O2 [1],inhibitory effects on oxidative damage to in vitro eye lens of rats induced by H2O2 [2]
"O=C(O)COc1nn(Cc2ccccc2)c2ccccc12 [BDL, Bendazac lysine, reference compound]",✓,9,3,75,25,✓,30,22,3,54,46,–,–,–
"O=C1O[C@H]([C@@H](O)CO)C(O)=C1O [VC, vitamin C, reference compound]",–,13,16,42,58,–,7,8,3,39,61,2,–,–
"O=C([O-])C(Oc1nn(Cc2ccccc2)c2ccccc12)C(=O)[O-].[Na+].[Na+] [Y1, 2-(1-benzyl-1H-indazole-3-oxyl) malonate disodium]",–,4,3,57,43,✓,4,1,–,80,20,–,not significant,showing inhibitory effects
"O=C([O-])C(Oc1nn(Cc2ccccc2)c2ccccc12)C(=O)[O-].[K+].[K+] [Y2, 2-(1-benzyl-1H-indazole-3-oxyl) malonate dipotassium]",–,2,3,29,71,–,–,3,3,–,100,2,not significant,not significant
"N[C@@H](Cc1c[nH]cn1)C(=O)O.N[C@@H](Cc1c[nH]cn1)C(=O)O.O=C(O)C(Oc1nn(Cc2ccccc2)c2ccccc12)C(=O)O [Y4, 2-(1-benzyl-1H-indazole-3-oxyl) malonate dihistidine]",✓,14,7,67,33,✓,18,3,–,86,14,–,showing inhibitory effects,showing inhibitory effects
"NCCCC[C@H](N)C(=O)O.NCCCC[C@H](N)C(=O)O.O=C(O)C(Oc1nn(Cc2ccccc2)c2ccccc12)C(=O)O [Y5, 2-(1-benzyl-1H-indazole-3-oxyl) malonate dilysine]",–,2,2,33,67,–,1,4,1,17,83,2,not significant,showing inhibitory effects
"O=C([O-])C(Oc1nn(Cc2cccc(F)c2)c2ccccc12)C(=O)[O-].[Na+].[Na+] [Y10, 2-[1-(3-fluoro-benzyl)-1H-indazole-3-oxyl) malonate disodium]",✓,4,1,80,20,✓,47,28,3,60,40,–,showing inhibitory effects,not significant
"NCCCC[C@H](N)C(=O)O.NCCCC[C@H](N)C(=O)O.O=C(O)C(Oc1nn(Cc2cccc(F)c2)c2ccccc12)C(=O)O [Y14, 2-[1-(3-fluoro-benzyl)-1H-indazole-3-oxyl) malonate dilysine]",–,–,–,–,–,✓,10,8,–,56,44,–,–,showing inhibitory effects
"NCCCC[C@H](N)C(=O)O.NCCCC[C@H](N)C(=O)O.O=C(O)C(Oc1nn(Cc2cccc(Cl)c2)c2ccccc12)C(=O)O [Y19, 2-[1-(3-chloro-benzyl)-1H-indazole-3-oxyl]malonate dilysine]",–,–,–,–,100,✓,18,10,4,56,44,3,not significant,showing inhibitory effects
